Test results reported in patent US12673038B2, “Antimycotic methoxyflavone and fluconazole combination for inhibiting cryptococcus” (Karl-Franzens-Universität Graz, priority 2019, dated 2026).

What was measured:
C. albicans = assay: In vitro antifungal activity of flavone in combination with azoles, growth via OD490; format: cell-based, Candida albicans; settings: OD490, flavone plus azole vs each alone
[1] = system: fungi including Aspergillus and Fusarium species; settings: Weidenbörner et al., Mycol. Res. 101 (1997); cited from earlier work

Structure (SMILES) | enhancement of the antifungal activity of azoles in the presence of the flavone (C. albicans) | antifungal effect [1]
COc1cc(OC)c2c(=O)cc(-c3ccc(OC)c(OC)c3)oc2c1 [3′,4′,5,7-TMF, 3′,4′,5,7-tetrametoxyflavone] | enhancement of the antifungal activity | 
COc1ccc2c(=O)cc(-c3ccccc3)oc2c1 [7-MF, 7-methoxyflavone] | enhancement of the antifungal activity | 
COc1cc(-c2cc(=O)c3c(OC)c(OC)c(OC)cc3o2)cc(OC)c1OC [3′,4′,5′,5,6,7-HMF, 3′,4′,5′,5,6,7-hexymethoxyflaovne] | enhancement of the antifungal activity | 
O=c1cc(-c2ccccc2)oc2ccccc12 [flavone] |  | displays an antifungal effect
COc1ccccc1-c1cc(=O)c2ccccc2o1 [2′-MF, 2′-methoxyflavone] | enhancement of the antifungal activity | 
O=c1cc(-c2ccccc2)oc2c1ccc1ccccc12 [7,8-BF, 7,8-benzoflavone] | enhancement of the antifungal activity | 
O=c1cc(-c2ccccc2)oc2ccc3ccccc3c12 [5,6-BF, 5,6-benzoflavone] | enhancement of the antifungal activity | 
